# Laboratory results from paper PMC5847527, “Identification of a novel 2-oxindole fluorinated derivative as in vivo antitumor agent for prostate cancer acting via AMPK activation” (Scientific Reports, 2018).
# Columns and labels:
# [1] = system: PTN2, RWPE-1, PC3, DU145 and LNCaP prostate cells; experiment: Cell viability by MTT assay, statements for the five cell lines together; format: cell-based, human
# Protocol: We then study the effect of the compounds on the proliferative capacity of PC-3, DU145 and LNCaP prostate cells. We also used the prostate cell lines PTN2 and RWPE-1 which are derived from a histologically normal adult and therefore are considered as normal prostate cells, for comparison. All the compounds were tested at concentrations ranging from 1 to 100 μM.
# (A) Normal (PTN2 and RWPE-1) and cancer (PC3,DU145 and LNCaP) prostate cells were treated with different doses of the compounds for 24 hours and cell viability was monitored by MTT assay. […] Values were normalized with the control and represent the mean ± SD of at least three independent experiments. *p < 0.05 and **p < 0.01 compared to control by the Student’s - test.
# Human prostate cancer epithelial PC-3, DU145 and LNCaP and human prostate normal RWPE-1 cells were purchased from American Type Culture Collection (ATCC CRL-1435 CRL-1740 and CRL 11609 respectively) (Rockville, MD, USA). The human prostate normal PNT2 cell line was purchased to ECACC (European Collection of Cell cultures, Salisbury, SP4 0JG, UK). Cells were routinely grown in RPMI 1640 medium supplemented with 100 IU/ml penicillin G sodium, 100 µg/ml streptomycin sulfate, 0.25 µg/ml amphotericin B (Invitrogen, Paisley, UK) and 10% fetal calf serum. Cells were used at passages between 10–20. […]
# Cell viability was determined by 3-(4,5-dimethylthiazol-2-yl)-2,5-diphenyltetrazolium bromide (MTT) (Sigma-Aldrich) method. […] The optical density in each well was evaluated by measurement of absorbance at 490 and 650 nm using a microplate reader (ELX 800 Bio-Tek Intruments, INC). IC50 values were calculated using GraphPad Prism vs 6.0 (GraphPad Software, Inc, La Jolla, CA, USA). Cell viability was also determined by counting viable and dead cells by Trypan blue staining. Trypan blue positive and negative cells were counted using a Countess^TM automated cell counter (Invitrogen, Carlsbad, CA, USA). Results were expressed in relation to total number of cells counted.
# [2] = system: cleaved Caspase 3 (17 kDa fragment); experiment: Cleaved Caspase 3 level by Western blot in prostate cells; format: cell-based, human
# Protocol: Figure 4 Cell Cycle analysis in 8c-treated prostate cancer cells. (A) PC-3 and LNCaP cells were treated with compound 8c for 24 hours and cell cycle analysis was analyzed by flow cytometry using Propidium Iodide (PI). Percentage of cells in subG0, G1, S, and G2/M phases is indicated in the histogram. (B) Levels of Cyclin D1, p-p53, p53, p21 and cleaved Caspase 3 (17 kDa fragment) were determined by Western blot. Upper panel, representative Western blot of two different experiments. β-tubulin (β-Tub) serves as a loading control. […]
# Cyclin D1 activity is modulated by several inhibitors such as p21 which negatively regulate cell cycle progression by interacting with cyclin dependent kinases (cdks). […] To further study the role of compound 8c in cell cycle, we determined the expression of p21, p53 and the levels of cleaved caspase 3 in the prostate cells. P53 was only determined in LNCaP cells since PC-3 cells are p53-negative[40].
# Cells were lysed in Lysis buffer (50 mM Tris pH 7.4, 0.8 M NaCl, 5 mM MgCl2, 0.1% Triton X-100) containing Protease Inhibitor and Phosphatase inhibitor Cocktails (Roche, Basel, Switzerland). Protein concentrations were measured by BioRad™ protein assay kit (Richmond, CA, USA). […] Films were analyzed by densitometry. […]
# [3] = system: LNCaP cells; experiment: Cell cycle analysis by flow cytometry (Propidium Iodide), LNCaP; format: cell-based, human; settings: 24 h, 25 μM and 50 μM
# Protocol: For that, we treated PC-3 and LNCaP cells with 25 μM and 50 μM of compound 8c for 24 h and performed cell cycle analysis by flow cytometry using Propidium Iodide (PI). […] It is worthy to note that when PC-3 cells were treated with compound 8c, 80% of cells were in subG0 phase (Fig. 4A).
# Figure 4 Cell Cycle analysis in 8c-treated prostate cancer cells. (A) PC-3 and LNCaP cells were treated with compound 8c for 24 hours and cell cycle analysis was analyzed by flow cytometry using Propidium Iodide (PI). Percentage of cells in subG0, G1, S, and G2/M phases is indicated in the histogram. (B) Levels of Cyclin D1, p-p53, p53, p21 and cleaved Caspase 3 (17 kDa fragment) were determined by Western blot. Upper panel, representative Western blot of two different experiments. β-tubulin (β-Tub) serves as a loading control. Lower panel, the densitometric analyses of bands represented as the mean ± SD of the two different experiments. *p < 0.05 and **p < 0.01 compared with the control group by the Student’s t-test.
# Flow cytometry was used to detect the distribution of cell cycle. After being cultivated with the treatment, 10^5 cells in 35 mm culture dish were harvested in 0.35% trypsin, collected and fixed with 70% cold ethanol at 4 °C for 1 h. Then, cells were centrifuged at 1500 g for 5 min and incubated in 0.5 ml PBS containing 0.1 mg/ml RNase for 30 min at 37 °C. […]
# [4] = Tolerability in PC-3 xenograft mice (weight, serum parameters, liver); format: in vivo; settings: 5 mg/Kg daily, 15 days
# From the text: To validate the therapeutic value of the compound 8c against castration-resistant prostate cancer a murine xenograft model was employed. Due to the potent effect of compound 8c on the aggressive PC-3 cell line and in order to avoid unnecessary wasting of animals according to the 3 Rs guidelines (reduction, replacement, refinement) for the use of animals in research, we only use PC-3 cells for the in vivo studies. PC-3 tumors were induced in nude mice by subcutaneous injection of cells in the right flank of the mouse. When tumors reached a 70 mm^3 volume, mice were daily treated with 5 mg/Kg of compound 8c. In vehicle-treated mice, an increase in tumor growth volume was observed during the course of the study and at the end of experimentation (Fig. 8A).
# Male immunodeficient nude-Foxn1 (nu/nu) mice (Envigo RMS, Barcelona, Spain), 4 to 6 week old, were used for all xenograft studies. […] Tumors were measured with external calipers and volume was calculated by the modified ellipsoidal formula as volume = length × (width)^2 × 0.52 mm^3 [52],[53]. At the end of the study, the mice were sacrificed by placing them in a CO2 gas-filled chamber, and the excised tumors were recovered and homogenized in lysis buffer for protein quantification and Western blotting. […]
structure (smiles),measurement,setting,value
"O=C1Nc2ccccc2C1(F)Cc1ccc(-c2ccccc2)o1 (stereo not drawn) [Compound 8c, 3-fluoro-3-((5-phenylfuran-2-yl)methyl)indolin-2-one]",inhibition of cell viability at 100 µM,[1]; 100 µM,almost totally inhibited cell viability
same,inhibition of cell proliferation,"[1]; 1–100 µM, dose-dependent, 24 hours",effectively inhibited cell proliferation
same,cleaved caspase 3 (17 kDa fragment),[2],increase in cleaved caspase 3
same,subG0 cells,[3],increase in subG0 cells
same,liver morphology,[4],Liver morphology was normal
same,mice weight or animal welfare,[4],No effect on mice weight or animal welfare
